Test results reported in the kinase profiling compilation of Christmann-Franck et al. (2016).

Key:
Test in all cases: radiometric filter-binding kinase assay
AURKB (human) = AURKB (human) (UniProt Q96GD4)
MINK1 (human) = MINK1 (human) (UniProt Q8N4C8)
MARK2 (human) = MARK2 (human) (UniProt Q7KZI7)
STK3 (human) = STK3 (human) (UniProt Q13188)
PKN2 (human) = PKN2 (human) (UniProt Q16513)
MKNK1 (human) = MKNK1 (human) (UniProt Q9BUB5)
MAPK3 (human) = MAPK3 (human) (UniProt P27361)
PHKG1 (human) = PHKG1 (human) (UniProt Q16816)
MAPK15 (human) = MAPK15 (human) (UniProt Q8TD08)
MAP2K1 (human) = MAP2K1 (human) (UniProt Q02750)
PRKCA (human) = PRKCA (human) (UniProt P17252)
NTRK1 (human) = NTRK1 (human) (UniProt P04629)
IGF1R (human) = IGF1R (human) (UniProt P08069)
MAPK9 (human) = MAPK9 (human) (UniProt P45984)
PRKACA (human) = PRKACA (human) (UniProt P17612)
YES1 (human) = YES1 (human) (UniProt P07947)
MKNK2 (human) = MKNK2 (human) (UniProt Q9HBH9)
PRKAA1 or PRKAA2 (rat) = settings: accession and sequence are those of the human protein
MAPK1 (human) = MAPK1 (human) (UniProt P28482)
IKBKB (human) = IKBKB (human) (UniProt O14920)
MAP3K5 (human) = MAP3K5 (human) (UniProt Q99683)
MAPK10 (human) = MAPK10 (human) (UniProt P53779)
CHEK2 (human) = CHEK2 (human) (UniProt O96017)
EPHB4 (human) = EPHB4 (human) (UniProt P54760)
CAMKK2 (human) = CAMKK2 (human) (UniProt Q96RR4)
SRC (human) = SRC (human) (UniProt P12931)
[1] = molecular target: STK11 CAB39 STRADA (human) (UniProt Q9Y376+Q7RTN6+Q15831)
CHEK1 (human) = CHEK1 (human) (UniProt O14757)
[2] = system: AKT2 (human), P31751 [S474D]
NEK2 (human) = NEK2 (human) (UniProt P51955)
RPS6KA1 KD1 KD2 (human) = RPS6KA1 KD1 KD2 (human) (UniProt Q15418)
GCK (human) = GCK (human) (UniProt Q12851)
MAPKAPK2 (human) = MAPKAPK2 (human) (UniProt P49137)
PIM2 (human) = PIM2 (human) (UniProt Q9P1W9)

Sequence of MKNK2 (human) (Q9HBH9 whole entry, looked up): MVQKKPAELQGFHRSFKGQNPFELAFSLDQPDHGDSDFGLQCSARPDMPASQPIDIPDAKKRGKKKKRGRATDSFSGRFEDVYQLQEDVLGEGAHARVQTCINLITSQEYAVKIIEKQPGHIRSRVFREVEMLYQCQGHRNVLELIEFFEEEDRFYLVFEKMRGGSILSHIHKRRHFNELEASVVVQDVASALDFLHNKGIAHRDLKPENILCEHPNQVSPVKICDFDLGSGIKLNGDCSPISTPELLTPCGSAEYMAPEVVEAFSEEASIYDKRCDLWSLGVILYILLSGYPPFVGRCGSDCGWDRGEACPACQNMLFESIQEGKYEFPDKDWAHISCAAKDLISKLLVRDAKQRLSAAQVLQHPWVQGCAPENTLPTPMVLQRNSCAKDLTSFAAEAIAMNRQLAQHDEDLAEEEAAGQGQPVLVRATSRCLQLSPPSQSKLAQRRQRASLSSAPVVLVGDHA
Sequence of CAMKK2 (human) (Q96RR4 whole entry, looked up): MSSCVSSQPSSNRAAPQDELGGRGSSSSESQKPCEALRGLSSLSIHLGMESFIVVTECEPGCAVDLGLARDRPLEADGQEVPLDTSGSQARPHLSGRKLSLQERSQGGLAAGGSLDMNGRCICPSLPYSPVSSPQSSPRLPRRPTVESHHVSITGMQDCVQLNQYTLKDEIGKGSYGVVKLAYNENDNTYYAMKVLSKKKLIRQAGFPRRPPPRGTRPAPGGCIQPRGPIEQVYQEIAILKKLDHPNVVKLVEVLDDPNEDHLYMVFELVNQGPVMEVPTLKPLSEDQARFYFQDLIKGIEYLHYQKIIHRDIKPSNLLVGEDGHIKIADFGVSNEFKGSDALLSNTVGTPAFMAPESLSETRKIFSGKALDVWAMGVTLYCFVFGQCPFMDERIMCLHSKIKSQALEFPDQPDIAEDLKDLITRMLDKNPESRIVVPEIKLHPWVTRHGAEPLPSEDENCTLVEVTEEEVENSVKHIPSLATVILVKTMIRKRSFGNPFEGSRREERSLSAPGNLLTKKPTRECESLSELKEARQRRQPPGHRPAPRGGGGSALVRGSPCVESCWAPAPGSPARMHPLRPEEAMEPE
Sequence of MAPKAPK2 (human) (P49137 whole entry, looked up): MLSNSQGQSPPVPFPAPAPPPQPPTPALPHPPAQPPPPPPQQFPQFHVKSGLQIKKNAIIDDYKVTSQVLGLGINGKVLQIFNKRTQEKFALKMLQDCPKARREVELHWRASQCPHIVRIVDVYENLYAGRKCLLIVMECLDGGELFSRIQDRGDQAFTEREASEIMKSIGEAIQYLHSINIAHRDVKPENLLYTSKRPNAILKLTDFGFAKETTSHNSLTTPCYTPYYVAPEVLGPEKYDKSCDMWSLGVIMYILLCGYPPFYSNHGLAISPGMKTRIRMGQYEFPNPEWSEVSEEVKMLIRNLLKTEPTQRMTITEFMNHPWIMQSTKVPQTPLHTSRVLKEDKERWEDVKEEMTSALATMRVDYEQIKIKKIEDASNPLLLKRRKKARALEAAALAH
Sequence of MAPK3 (human) (P27361 whole entry, looked up): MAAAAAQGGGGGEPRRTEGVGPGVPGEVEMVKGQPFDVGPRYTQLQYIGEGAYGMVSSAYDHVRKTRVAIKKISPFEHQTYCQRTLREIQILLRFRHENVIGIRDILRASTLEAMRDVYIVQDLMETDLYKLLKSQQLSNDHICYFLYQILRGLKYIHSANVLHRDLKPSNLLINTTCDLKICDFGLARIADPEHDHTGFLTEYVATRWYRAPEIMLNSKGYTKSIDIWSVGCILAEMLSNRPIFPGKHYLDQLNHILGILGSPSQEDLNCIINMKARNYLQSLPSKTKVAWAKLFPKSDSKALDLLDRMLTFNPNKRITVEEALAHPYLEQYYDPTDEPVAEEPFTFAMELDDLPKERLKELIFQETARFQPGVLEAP
Sequence of MINK1 (human) (Q8N4C8 whole entry, looked up): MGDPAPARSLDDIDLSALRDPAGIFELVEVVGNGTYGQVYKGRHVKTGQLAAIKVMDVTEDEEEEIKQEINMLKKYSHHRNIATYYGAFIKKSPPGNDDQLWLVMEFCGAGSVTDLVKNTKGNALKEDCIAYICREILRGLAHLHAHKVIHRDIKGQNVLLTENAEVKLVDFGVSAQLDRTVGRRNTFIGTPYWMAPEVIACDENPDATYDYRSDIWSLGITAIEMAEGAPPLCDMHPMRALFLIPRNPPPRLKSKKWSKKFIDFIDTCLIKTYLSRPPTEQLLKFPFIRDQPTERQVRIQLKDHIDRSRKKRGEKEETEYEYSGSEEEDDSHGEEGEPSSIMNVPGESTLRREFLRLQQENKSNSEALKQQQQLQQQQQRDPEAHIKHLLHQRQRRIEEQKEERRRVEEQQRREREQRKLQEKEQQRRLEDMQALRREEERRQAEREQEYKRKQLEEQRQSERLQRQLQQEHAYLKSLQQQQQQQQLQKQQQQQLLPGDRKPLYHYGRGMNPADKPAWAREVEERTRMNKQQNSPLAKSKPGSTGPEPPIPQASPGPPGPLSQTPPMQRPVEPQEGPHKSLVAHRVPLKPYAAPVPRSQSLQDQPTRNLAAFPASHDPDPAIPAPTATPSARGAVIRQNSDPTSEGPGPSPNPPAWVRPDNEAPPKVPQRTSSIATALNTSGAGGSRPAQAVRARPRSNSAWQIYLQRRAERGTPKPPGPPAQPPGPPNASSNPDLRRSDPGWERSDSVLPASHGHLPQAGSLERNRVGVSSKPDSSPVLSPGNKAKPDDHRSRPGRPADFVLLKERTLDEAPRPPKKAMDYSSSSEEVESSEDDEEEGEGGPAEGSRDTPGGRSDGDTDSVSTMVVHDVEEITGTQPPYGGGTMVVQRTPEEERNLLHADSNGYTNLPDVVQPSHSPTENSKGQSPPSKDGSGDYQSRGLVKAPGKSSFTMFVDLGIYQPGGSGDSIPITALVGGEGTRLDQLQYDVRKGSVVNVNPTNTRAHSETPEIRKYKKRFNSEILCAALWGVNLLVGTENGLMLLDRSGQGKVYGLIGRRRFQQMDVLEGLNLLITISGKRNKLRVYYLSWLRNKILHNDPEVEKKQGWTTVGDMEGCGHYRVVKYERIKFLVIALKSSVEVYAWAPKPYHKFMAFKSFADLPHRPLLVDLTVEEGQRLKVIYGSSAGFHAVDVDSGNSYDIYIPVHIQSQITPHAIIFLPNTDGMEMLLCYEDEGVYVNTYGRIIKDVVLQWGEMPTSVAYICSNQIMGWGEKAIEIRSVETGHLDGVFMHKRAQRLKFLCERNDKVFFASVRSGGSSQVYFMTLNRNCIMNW
Sequence of MAP3K5 (human) (Q99683 whole entry, looked up): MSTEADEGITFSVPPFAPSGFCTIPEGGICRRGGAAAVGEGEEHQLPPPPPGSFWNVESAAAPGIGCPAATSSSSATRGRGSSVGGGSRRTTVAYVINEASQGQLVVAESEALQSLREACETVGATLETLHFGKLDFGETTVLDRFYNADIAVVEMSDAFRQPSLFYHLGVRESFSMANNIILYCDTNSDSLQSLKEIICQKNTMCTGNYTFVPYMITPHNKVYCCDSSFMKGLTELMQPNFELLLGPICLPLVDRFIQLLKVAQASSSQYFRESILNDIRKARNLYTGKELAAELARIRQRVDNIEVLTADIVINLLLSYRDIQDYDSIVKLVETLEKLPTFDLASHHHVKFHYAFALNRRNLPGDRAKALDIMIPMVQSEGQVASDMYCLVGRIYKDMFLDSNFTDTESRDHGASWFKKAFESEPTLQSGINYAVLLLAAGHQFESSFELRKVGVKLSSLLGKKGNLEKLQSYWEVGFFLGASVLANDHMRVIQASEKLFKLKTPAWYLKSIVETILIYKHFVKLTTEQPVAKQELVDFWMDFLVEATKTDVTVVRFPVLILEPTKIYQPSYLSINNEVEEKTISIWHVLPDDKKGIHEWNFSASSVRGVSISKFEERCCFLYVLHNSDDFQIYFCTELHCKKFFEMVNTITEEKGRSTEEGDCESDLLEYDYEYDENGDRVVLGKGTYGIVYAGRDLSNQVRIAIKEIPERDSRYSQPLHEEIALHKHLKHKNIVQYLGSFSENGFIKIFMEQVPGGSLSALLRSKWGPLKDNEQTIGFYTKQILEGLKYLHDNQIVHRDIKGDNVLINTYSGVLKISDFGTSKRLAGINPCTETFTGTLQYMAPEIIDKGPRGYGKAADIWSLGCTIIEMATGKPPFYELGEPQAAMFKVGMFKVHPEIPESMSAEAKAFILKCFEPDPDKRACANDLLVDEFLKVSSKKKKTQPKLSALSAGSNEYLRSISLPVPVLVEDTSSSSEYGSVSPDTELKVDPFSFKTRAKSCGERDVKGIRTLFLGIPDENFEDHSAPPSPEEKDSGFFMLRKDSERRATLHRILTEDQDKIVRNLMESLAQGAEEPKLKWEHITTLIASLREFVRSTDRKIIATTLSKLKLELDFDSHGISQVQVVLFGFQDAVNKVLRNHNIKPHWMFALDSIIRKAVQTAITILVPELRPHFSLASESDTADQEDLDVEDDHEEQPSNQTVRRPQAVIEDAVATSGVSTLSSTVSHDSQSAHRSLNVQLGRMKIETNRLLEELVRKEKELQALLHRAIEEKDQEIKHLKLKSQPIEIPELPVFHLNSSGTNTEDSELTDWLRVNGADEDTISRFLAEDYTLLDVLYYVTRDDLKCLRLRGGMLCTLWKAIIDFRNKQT
Sequence of MAPK9 (human) (P45984 whole entry, looked up): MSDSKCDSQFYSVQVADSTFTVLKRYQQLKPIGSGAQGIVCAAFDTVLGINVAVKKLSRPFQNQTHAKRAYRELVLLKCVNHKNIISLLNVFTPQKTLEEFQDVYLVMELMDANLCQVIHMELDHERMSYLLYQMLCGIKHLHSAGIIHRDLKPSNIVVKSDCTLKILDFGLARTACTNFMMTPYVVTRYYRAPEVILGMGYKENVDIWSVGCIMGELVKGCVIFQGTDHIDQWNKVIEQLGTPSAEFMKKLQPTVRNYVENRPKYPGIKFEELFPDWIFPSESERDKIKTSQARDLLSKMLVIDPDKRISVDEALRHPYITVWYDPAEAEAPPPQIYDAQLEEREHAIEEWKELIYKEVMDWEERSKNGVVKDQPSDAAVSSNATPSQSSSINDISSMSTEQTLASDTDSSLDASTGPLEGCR

O=C(NOC[C@H](O)CO)c1ccc(F)c(F)c1Nc1ccc(I)cc1Cl
residual activity (AURKB (human); compound 1.0 µM): 87% | residual activity (AURKB (human); compound 10.0 µM): 82% | residual activity (MINK1 (human); compound 1.0 µM): 117% | residual activity (MINK1 (human); compound 10.0 µM): 144% | residual activity (MARK2 (human); compound 1.0 µM): 104% | residual activity (MARK2 (human); compound 10.0 µM): 103% | residual activity (STK3 (human); compound 1.0 µM): 83% | residual activity (STK3 (human); compound 10.0 µM): 70% | residual activity (PKN2 (human); compound 1.0 µM): 82% | residual activity (PKN2 (human); compound 10.0 µM): 83% | residual activity (MKNK1 (human); compound 1.0 µM): 103% | residual activity (MKNK1 (human); compound 10.0 µM): 104% | residual activity (MAPK3 (human); compound 1.0 µM): 88% | residual activity (MAPK3 (human); compound 10.0 µM): 106% | residual activity (PHKG1 (human); compound 1.0 µM): 95% | residual activity (PHKG1 (human); compound 10.0 µM): 90% | residual activity (MAPK15 (human); compound 1.0 µM): 104% | residual activity (MAPK15 (human); compound 10.0 µM): 96% | residual activity (MAP2K1 (human); compound 1.0 µM): 18% | residual activity (MAP2K1 (human); compound 10.0 µM): 2% | residual activity (PRKCA (human); compound 1.0 µM): 100% | residual activity (PRKCA (human); compound 10.0 µM): 108% | residual activity (NTRK1 (human); compound 1.0 µM): 72% | residual activity (NTRK1 (human); compound 10.0 µM): 75% | residual activity (IGF1R (human); compound 1.0 µM): 88% | residual activity (IGF1R (human); compound 10.0 µM): 113% | residual activity (MAPK9 (human); compound 1.0 µM): 90% | residual activity (MAPK9 (human); compound 10.0 µM): 105% | residual activity (PRKACA (human); compound 1.0 µM): 87% | residual activity (PRKACA (human); compound 10.0 µM): 97% | residual activity (YES1 (human); compound 1.0 µM): 82% | residual activity (YES1 (human); compound 10.0 µM): 86% | residual activity (MKNK2 (human); compound 1.0 µM): 93% | residual activity (MKNK2 (human); compound 10.0 µM): 110% | residual activity (PRKAA1 or PRKAA2 (rat); compound 1.0 µM): 110% | residual activity (PRKAA1 or PRKAA2 (rat); compound 10.0 µM): 107% | residual activity (MAPK1 (human); compound 1.0 µM): 90% | residual activity (MAPK1 (human); compound 10.0 µM): 100% | residual activity (IKBKB (human); compound 1.0 µM): 88% | residual activity (IKBKB (human); compound 10.0 µM): 103% | residual activity (MAP3K5 (human); compound 1.0 µM): 108% | residual activity (MAP3K5 (human); compound 10.0 µM): 116% | residual activity (MAPK10 (human); compound 10.0 µM): 85% | residual activity (CHEK2 (human); compound 1.0 µM): 95% | residual activity (CHEK2 (human); compound 10.0 µM): 114% | residual activity (EPHB4 (human); compound 1.0 µM): 90% | residual activity (EPHB4 (human); compound 10.0 µM): 99% | residual activity (CAMKK2 (human); compound 1.0 µM): 92% | residual activity (CAMKK2 (human); compound 10.0 µM): 94% | residual activity (SRC (human); compound 1.0 µM): 104% | residual activity (SRC (human); compound 10.0 µM): 91% | residual activity ([1]; compound 1.0 µM): 113% | residual activity (CHEK1 (human); compound 1.0 µM): 130% | residual activity (CHEK1 (human); compound 10.0 µM): 122% | residual activity ([2]; compound 1.0 µM): 95% | residual activity ([2]; compound 10.0 µM): 82% | residual activity (NEK2 (human); compound 1.0 µM): 97% | residual activity (NEK2 (human); compound 10.0 µM): 102% | residual activity (RPS6KA1 KD1 KD2 (human); compound 1.0 µM): 102% | residual activity (RPS6KA1 KD1 KD2 (human); compound 10.0 µM): 102% | residual activity (GCK (human); compound 1.0 µM): 90% | residual activity (MAPKAPK2 (human); compound 1.0 µM): 103% | residual activity (MAPKAPK2 (human); compound 10.0 µM): 102%

Cc1cc(NC(=O)c2cccc(NC(=O)/C=C/CN(C)C)c2)ccc1Nc1nccc(-c2cccnc2)n1
residual activity (AURKB (human); compound 0.1 µM): 87% | residual activity (AURKB (human); compound 1.0 µM): 86% | residual activity (MINK1 (human); compound 0.1 µM): 94% | residual activity (MINK1 (human); compound 1.0 µM): 78% | residual activity (MARK2 (human); compound 0.1 µM): 99% | residual activity (MARK2 (human); compound 1.0 µM): 85% | residual activity (STK3 (human); compound 1.0 µM): 72% | residual activity (PIM2 (human); compound 0.1 µM): 104% | residual activity (PIM2 (human); compound 1.0 µM): 99% | residual activity (PKN2 (human); compound 0.1 µM): 112% | residual activity (PKN2 (human); compound 1.0 µM): 95% | residual activity (MKNK1 (human); compound 1.0 µM): 88% | residual activity (MAPK3 (human); compound 0.1 µM): 103% | residual activity (MAPK3 (human); compound 1.0 µM): 99% | residual activity (PHKG1 (human); compound 0.1 µM): 85% | residual activity (PHKG1 (human); compound 1.0 µM): 86% | residual activity (MAPK15 (human); compound 0.1 µM): 90% | residual activity (MAPK15 (human); compound 1.0 µM): 64% | residual activity (MAP2K1 (human); compound 0.1 µM): 107% | residual activity (MAP2K1 (human); compound 1.0 µM): 96% | residual activity (PRKCA (human); compound 0.1 µM): 93% | residual activity (PRKCA (human); compound 1.0 µM): 90% | residual activity (NTRK1 (human); compound 1.0 µM): 92% | residual activity (IGF1R (human); compound 1.0 µM): 87% | residual activity (MAPK9 (human); compound 1.0 µM): 17% | residual activity (PRKACA (human); compound 0.1 µM): 105% | residual activity (PRKACA (human); compound 1.0 µM): 93% | residual activity (YES1 (human); compound 0.1 µM): 87% | residual activity (YES1 (human); compound 1.0 µM): 39% | residual activity (MKNK2 (human); compound 0.1 µM): 84% | residual activity (MKNK2 (human); compound 1.0 µM): 67% | residual activity (PRKAA1 or PRKAA2 (rat); compound 0.1 µM): 101% | residual activity (PRKAA1 or PRKAA2 (rat); compound 1.0 µM): 77% | residual activity (MAPK1 (human); compound 0.1 µM): 110% | residual activity (MAPK1 (human); compound 1.0 µM): 100% | residual activity (IKBKB (human); compound 0.1 µM): 62% | residual activity (IKBKB (human); compound 1.0 µM): 74% | residual activity (MAP3K5 (human); compound 0.1 µM): 100% | residual activity (MAP3K5 (human); compound 1.0 µM): 91% | residual activity (MAPK10 (human); compound 0.1 µM): 14% | residual activity (MAPK10 (human); compound 1.0 µM): 13% | residual activity (CHEK2 (human); compound 0.1 µM): 102% | residual activity (CHEK2 (human); compound 1.0 µM): 72% | residual activity (EPHB4 (human); compound 0.1 µM): 97% | residual activity (EPHB4 (human); compound 1.0 µM): 98% | residual activity (CAMKK2 (human); compound 1.0 µM): 63% | residual activity (SRC (human); compound 0.1 µM): 85% | residual activity (SRC (human); compound 1.0 µM): 50% | residual activity ([1]; compound 0.1 µM): 106% | residual activity ([1]; compound 1.0 µM): 95% | residual activity (CHEK1 (human); compound 0.1 µM): 102% | residual activity (CHEK1 (human); compound 1.0 µM): 87% | residual activity ([2]; compound 0.1 µM): 99% | residual activity ([2]; compound 1.0 µM): 91% | residual activity (NEK2 (human); compound 0.1 µM): 105% | residual activity (NEK2 (human); compound 1.0 µM): 100% | residual activity (RPS6KA1 KD1 KD2 (human); compound 0.1 µM): 89% | residual activity (RPS6KA1 KD1 KD2 (human); compound 1.0 µM): 81% | residual activity (GCK (human); compound 0.1 µM): 98% | residual activity (GCK (human); compound 1.0 µM): 73% | residual activity (MAPKAPK2 (human); compound 0.1 µM): 102% | residual activity (MAPKAPK2 (human); compound 1.0 µM): 100%
